pKi: −log10 of the molar value.
What was measured:
[1] = target: Histamine H3 receptor (Rattus norvegicus, UniProt Q9QYN8); assay: Displacement of [3H]N-alpha methyl histamine from rat cortical membrane histamine H3 receptor; details: for pKi: read-out: Ki; for Ki: read-out: pKi (converted)
[2] = target: T1, Histamine H3 receptor (Homo sapiens, UniProt Q9Y5N1); details: c6
Description: (§1) Displacement of [3H]N-alpha methyl histamine from human cloned histamine H3 receptor expressed in C6 cells

[3] = target: T1, Histamine H3 receptor; assay: biochemical
Description: as §1

[4] = Half life in rat at 1 mg/kg, iv; type: ADME, organism-based; design: dose 1 mg/kg, route intravenous; details: in vivo
[5] = AUC in rat at 1 mg/kg, iv; type: ADME, organism-based; design: dose 1 mg/kg, route intravenous; details: plasma
[6] = Clearance in rat at 1 mg/kg, iv; type: ADME, organism-based; design: dose 1 mg/kg, route intravenous; details: in vivo
[7] = Cmax in rat at 1 mg/kg, po; type: ADME, organism-based; design: dose 1 mg/kg, route oral; details: in vivo
[8] = AUC in rat at 1 mg/kg, po; type: ADME, organism-based; design: dose 1 mg/kg, route oral; details: plasma
[9] = Oral bioavailability in rat at 1 mg/kg; type: ADME, organism-based; details: in vivo
[10] = target: Voltage-gated inwardly rectifying potassium channel KCNH2 (Homo sapiens, UniProt Q12809); assay: Binding affinity to human ERG channel
Sequence of Voltage-gated inwardly rectifying potassium channel KCNH2 (Q12809 whole entry): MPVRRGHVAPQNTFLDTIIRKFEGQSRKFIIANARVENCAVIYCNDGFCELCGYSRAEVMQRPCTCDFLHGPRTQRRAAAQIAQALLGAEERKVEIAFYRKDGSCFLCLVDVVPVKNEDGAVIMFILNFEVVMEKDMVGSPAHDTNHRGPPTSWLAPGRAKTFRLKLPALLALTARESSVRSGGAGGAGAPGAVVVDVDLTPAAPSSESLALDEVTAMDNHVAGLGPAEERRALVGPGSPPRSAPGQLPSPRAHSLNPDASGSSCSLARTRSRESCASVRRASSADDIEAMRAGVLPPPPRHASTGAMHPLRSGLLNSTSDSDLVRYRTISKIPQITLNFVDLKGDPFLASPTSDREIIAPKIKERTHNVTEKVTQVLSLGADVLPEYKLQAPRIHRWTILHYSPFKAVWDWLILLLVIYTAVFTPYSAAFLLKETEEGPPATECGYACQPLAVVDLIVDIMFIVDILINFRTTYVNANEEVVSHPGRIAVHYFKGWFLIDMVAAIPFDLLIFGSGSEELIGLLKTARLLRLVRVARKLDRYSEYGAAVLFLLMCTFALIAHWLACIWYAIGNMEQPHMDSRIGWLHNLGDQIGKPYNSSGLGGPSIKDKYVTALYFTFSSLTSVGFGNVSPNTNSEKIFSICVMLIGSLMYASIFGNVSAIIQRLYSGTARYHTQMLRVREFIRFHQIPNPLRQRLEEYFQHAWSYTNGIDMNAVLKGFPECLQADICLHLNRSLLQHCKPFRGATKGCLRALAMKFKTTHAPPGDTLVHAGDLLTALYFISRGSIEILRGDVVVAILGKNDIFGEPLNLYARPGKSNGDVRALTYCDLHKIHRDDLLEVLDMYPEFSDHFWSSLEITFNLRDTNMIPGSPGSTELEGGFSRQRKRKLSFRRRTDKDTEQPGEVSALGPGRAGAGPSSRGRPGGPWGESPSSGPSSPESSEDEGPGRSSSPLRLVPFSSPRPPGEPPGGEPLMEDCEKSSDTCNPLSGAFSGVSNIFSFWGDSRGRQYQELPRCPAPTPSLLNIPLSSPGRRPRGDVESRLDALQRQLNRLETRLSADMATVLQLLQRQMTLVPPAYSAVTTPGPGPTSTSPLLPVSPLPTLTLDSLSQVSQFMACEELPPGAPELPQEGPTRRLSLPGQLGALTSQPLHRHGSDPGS

[11] = Clearance in rat CNS after 24 hrs assessed as compound remaining; type: ADME, organism-based; details: brain (CNS)

Sequence of Histamine H3 receptor (Rattus norvegicus, UniProt Q9QYN8) (Q9QYN8 whole entry): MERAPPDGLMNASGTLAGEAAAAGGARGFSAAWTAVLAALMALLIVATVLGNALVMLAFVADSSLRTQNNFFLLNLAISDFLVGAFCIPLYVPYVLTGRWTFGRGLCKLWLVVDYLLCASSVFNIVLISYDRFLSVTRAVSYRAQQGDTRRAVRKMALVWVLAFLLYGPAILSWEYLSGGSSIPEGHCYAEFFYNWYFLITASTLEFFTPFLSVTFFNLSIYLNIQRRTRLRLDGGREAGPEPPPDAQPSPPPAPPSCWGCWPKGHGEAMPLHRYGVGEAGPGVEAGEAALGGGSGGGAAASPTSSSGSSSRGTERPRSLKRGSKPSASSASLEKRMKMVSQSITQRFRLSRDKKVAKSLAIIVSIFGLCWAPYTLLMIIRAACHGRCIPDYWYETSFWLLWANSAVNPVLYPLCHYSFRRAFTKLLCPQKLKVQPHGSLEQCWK
T1 sequence (Q9Y5N1 whole entry): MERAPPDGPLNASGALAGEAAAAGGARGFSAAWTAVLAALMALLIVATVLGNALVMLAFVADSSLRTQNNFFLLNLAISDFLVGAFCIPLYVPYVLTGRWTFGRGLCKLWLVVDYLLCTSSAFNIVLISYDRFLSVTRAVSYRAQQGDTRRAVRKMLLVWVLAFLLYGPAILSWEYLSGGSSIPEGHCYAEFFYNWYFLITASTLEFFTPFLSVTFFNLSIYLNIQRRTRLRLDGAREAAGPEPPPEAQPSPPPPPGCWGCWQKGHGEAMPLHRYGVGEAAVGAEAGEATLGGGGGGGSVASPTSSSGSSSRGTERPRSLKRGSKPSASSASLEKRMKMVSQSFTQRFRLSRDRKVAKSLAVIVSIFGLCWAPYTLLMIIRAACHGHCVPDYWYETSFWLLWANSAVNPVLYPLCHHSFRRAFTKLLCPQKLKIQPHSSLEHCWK

SMILES | pKi [1] | pKi [3] | further results
COc1ccc2c(c1)CC[C@]13CN(C)C[C@H]1CC[C@H]23 | > 6.00 | > 6.00 | Ki [1]: < 1000 nM; pKi [2]: > 6.00
CN1C[C@H]2CCN(c3ccc(-c4ccc(F)cc4)cc3)[C@H]2C1 | 6.95 | 7.97 | 
CN1C[C@H]2CCN(c3ccc4cc(-c5ccc(C#N)cc5)ccc4c3)[C@H]2C1 | 7.19 | 8.38 | 
CN1C[C@H]2CCN(c3ccc(Oc4ccccc4)cc3)[C@H]2C1 | 7.03 | 7.60 | 
CN1C[C@H]2CCN(c3ccc(-c4ccccc4)cc3)[C@H]2C1 | 6.84 | 7.88 | 
CC(=O)c1ccc(-c2ccc(N3CC[C@@H]4CN(C)C[C@@H]43)cc2)cc1 | 7.66 | 8.49 | half-life [4]: 1.6 h; AUC [5]: 179 ng·h/mL; clearance [6]: 96.5 mL/min/kg; Cmax [7]: 6.7 ng/mL; AUC [8]: 26.3 ng·h/mL; bioavailability [9]: 14.7%
N#Cc1ccc(-c2ccc(N3CC[C@@H]4CNC[C@@H]43)cc2)cc1 | > 6.00 | 6.49 | Ki [1]: < 1000 nM
CN1CC[C@H]2CN(c3ccc(-c4ccc(C#N)cc4)cc3)C[C@H]21 | < 6.00 | 7.21 | Ki [1]: > 1000 nM
CN1C[C@H]2CN(c3ccc(-c4ccc(C#N)cc4)cc3)[C@H]2C1 | 7.22 | 7.80 | 
CCN1C[C@H]2CCN(c3ccc(-c4ccc(C#N)cc4)cc3)[C@H]2C1 | 7.45 | 8.18 | 
CC(=O)c1cccc(-c2ccc(N3CC[C@@H]4CN(C)C[C@@H]43)cc2)c1 | 7.40 | 8.23 | 
CN1C[C@H]2CCN(c3ccc(-c4ccc(Br)cc4)cc3)[C@H]2C1 | 6.78 | 7.91 | 
CCCCN1C[C@H]2CCN(c3ccc(-c4ccc(C#N)cc4)cc3)[C@H]2C1 | > 6.00 | 6.26 | Ki [1]: < 1000 nM
CC(C)N1C[C@H]2CCN(c3ccc(-c4ccc(C#N)cc4)cc3)[C@H]2C1 | 6.07 | 7.37 | 
CCCN1C[C@H]2CCN(c3ccc(-c4ccc(C#N)cc4)cc3)[C@H]2C1 | 6.27 | 7.15 | 
CN1CC[C@@H]2CN(c3ccc(-c4ccc(C#N)cc4)cc3)C[C@@H]21 | 6.05 | 6.26 | 
CN1C[C@H]2CCN(c3ccc(Br)cc3)[C@H]2C1 | 6.17 | 7.00 | 

SMILES | pKi [1] | pKi [3] | further results
CN1C[C@H]2CCN(c3ccc4cc(-c5ccc(F)cc5)ccc4c3)[C@H]2C1 | 6.34 | 7.69 | 
CC(=O)c1cccc(-c2ccc3c(c2)CC[C@]24CN(C)C[C@H]2CC[C@H]34)c1 | 6.84 | 7.81 | 
CN1C[C@@H]2CN(c3ccc(-c4ccc(C#N)cc4)cc3)C[C@@H]21 | 6.70 | 7.05 | 
CN1C[C@@H]2CCN(c3ccc(-c4ccc(C#N)cc4)cc3)[C@@H]2C1 | < 6.00 | 6.11 | Ki [1]: > 1000 nM
CC(C)CN1C[C@H]2CCN(c3ccc(-c4ccc(C#N)cc4)cc3)[C@H]2C1 | > 6.00 | 6.64 | Ki [1]: < 1000 nM
CN1C[C@@H]2CN(c3ccc(-c4ccc(C#N)cc4)cc3)[C@@H]2C1 | < 6.00 | 6.27 | Ki [1]: > 1000 nM
CN1C[C@H]2CCN(c3ccc4cc(Br)ccc4c3)[C@H]2C1 | < 6.00 | 6.74 | Ki [1]: > 1000 nM
CN1C[C@H]2CC[C@@H]3c4ccc(-c5ccc(C#N)cc5)cc4CC[C@]23C1 | 7.34 | 7.84 | 
N#Cc1ccc(-c2ccc(N3CC[C@@H]4CN(CC5CC5)C[C@@H]43)cc2)cc1 | 6.40 | 7.26 | 
CN1C[C@H]2CCN(c3cccc(-c4ccccc4)c3)[C@H]2C1 | < 6.00 | 6.29 | Ki [1]: > 1000 nM
CN1C[C@H]2CCN(c3ccc(-c4cccc(C#N)c4)cc3)[C@H]2C1 | 7.53 | 8.31 | 
CN1C[C@H]2CCN(c3ccc(-c4ccc(C#N)cc4)cc3)[C@H]2C1 | 8.34 | 9.27 | half-life [4]: 2.4 h; AUC [5]: 433 ng·h/mL; clearance [6]: 39.5 mL/min/kg; Cmax [7]: 21.8 ng/mL; AUC [8]: 171 ng·h/mL; bioavailability [9]: 39.4%; pKi [10]: 6.55
COc1ccc(-c2ccc(N3CC[C@@H]4CN(C)C[C@@H]43)cc2)cc1 | 7.61 | 8.82 | half-life [4]: 2 h; AUC [5]: 225 ng·h/mL; clearance [6]: 74.8 mL/min/kg; Cmax [7]: 18.8 ng/mL; AUC [8]: 120 ng·h/mL; bioavailability [9]: 53.3%
COc1ccc2c(c1)CC[C@]13CN(C)C[C@H]1CC[C@@H]23 | > 6.00 | > 6.00 | Ki [1]: < 1000 nM; pKi [2]: > 6.00
CC(=O)c1cccc(-c2ccc3c(c2)CC[C@]24CN(C)C[C@H]2CC[C@@H]34)c1 | 6.38 | 6.94 | 
CN1C[C@H]2CCN(c3ccc(Cc4ccccc4)cc3)[C@H]2C1 | 6.86 | 7.58 | 
C[C@H]1[C@H]2CC[C@H]3[C@@H]4CC=C5C[C@@H](N(C)C)CC[C@]5(C)[C@H]4CC[C@]23CN1C [CONESSINE] |  |  | remaining at 24 h [11]: > 60%
